Measurements: PMC6268492, “Synthesis and Antiangiogenic Activity of Novel Gambogic Acid Derivatives” (Molecules, 2012)
Like-named read-outs stand apart in the source and are kept apart here.

Tests used:
[1] = tested on: transgenic fli-1: enhanced GFP zebrafish embryos; assay: Zebrafish embryo assay: antiangiogenic effects; type: in vivo, zebrafish (Danio rerio); conditions: for inhibition in vivo at 1 µM / antiangiogenic rates: 1 μM
Description: As stated previously, zebrafish is regarded as a powerful tool in the study of human diseases. […] In this study, all GA derivatives were incubated with the transgenic friend leukemia integration-1 (fli-1): enhanced GFP zebrafish embryos which carried a fli-1 promoter which can drive the expression of GFP in the whole endothelium.
Figure 1 Effects on neovascularization in zebrafish embryos. The transgenic fli-1: enhanced GFP zebrafish embryos in embryo water (0.2 g/L of instant ocean salt in distilled water) incubated with 1 μM of compounds at 6 h postfertilization (hpf) for 24 h. Zebrafish embryos were imaged (Imager.Z1, magnification: left, 40×; right, 100×).
Using transgenic fli-1: enhanced GFP zebrafish embryos, we investigated the effects of all compounds on angiogenesis. […] At about 6 h post fertilization (hpf), the embryos were sorted in the 6-well plate (six embryos/well), removing dead and unhealthy embryos. Then the embryos were treated with the indicated concentrations of compounds which were added into embryo water. After incubation for 24 or 48 h, the embryos were anesthetized using 0.05% 2-phenoxyethanol in embryo water, quantified and photographed.

LO2 = assay: MTT assay, cytotoxicity; type: cell-based; conditions: Homo sapiens, L02, 24 h, read-out: IC50, inhibition of cell proliferation
Description: (§1) HepG2, HCT116, HeLa and LO2 cell lines were cultured in DMEM containing 10% fetal bovine serum (FBS), 100 IU/mL penicillin and 100 µg/mL streptomycin; A549 and K562 cell lines were cultured in RPMI 1640 medium containing 10% fetal bovine serum (FBS), 100 IU/mL penicillin and 100 µg/mL streptomycin; Human umbilical vein endothelial cells (HUVECs) were cultured on gelatin-coated culture flasks in M-199 medium with 20% fetal bovine serum (FBS), 2 ng/mL VEGF, 10 ng/mL basic FGF, 100 IU/mL penicillin, and 100 μg/mL streptomycin; all of them were obtained from the American Type Culture Collection (ATCC) and all cell lines were incubated in an atmosphere of 5% CO2 at 37 °C.
(§2) Cells were treated with various concentrations of compound in 96-well culture plates for 24 h in final volumes of 200 μL (5 × 10^3 cells/well). Then 20 μL of MTT solution (5 mg/mL) was added to each well, and cells were incubated for an additional 3 h. Then the medium was carefully removed, and precipitates were dissolved in 150 μL of DMSO, shaken mechanically for 30 min, and then absorbance values at a wavelength of 570 nm were taken on a spectrophotometer (Molecular Devices, Sunnyvale, CA, USA). Values were calculated using percentage of growth versus untreated control. The IC50 was defined as the concentration that caused 50% inhibition of cell proliferation, and was calculated by SAS statistical software.

HUVEC = assay: MTT assay, cell proliferation; type: cell-based, Human; conditions: Homo sapiens, 24 h, read-out: IC50, inhibition of cell proliferation
Description: Inhibiting the proliferation of ECs is another important strategy for antiangiogenesis. […] As the exposure time of these derivatives was 24 h in the migration assay and 6 h in the tube formation assay, the effect of the incubation for 24 h in the presence of these compounds on HUVECs proliferation was then tested. Cell viability was assessed by the MTT method. We can see from Table 4 that these compounds had different antiproliferative activities.
as §1, §2

HeLa = assay: MTT assay, cell proliferation; type: cell-based; conditions: Homo sapiens, 24 h, read-out: IC50, inhibition of cell proliferation
Description: as §1, §2

HCT116 = assay: MTT assay, cell proliferation; type: cell-based; conditions: Homo sapiens, HCT-116, 24 h, read-out: IC50, inhibition of cell proliferation
Description: as §1, §2

A549 = assay: MTT assay, cell proliferation; type: cell-based; conditions: Homo sapiens, 24 h, read-out: IC50, inhibition of cell proliferation
Description: as §1, §2

K562 = assay: MTT assay, cell proliferation; type: cell-based; conditions: Homo sapiens, 24 h, read-out: IC50, inhibition of cell proliferation
Description: as §1, §2

HepG2 = assay: MTT assay, cell proliferation; type: cell-based; conditions: Homo sapiens, 24 h, read-out: IC50, inhibition of cell proliferation
Description: as §1, §2

[2] = Danio rerio, zebrafish embryos, vs vehicle (0.05% DMSO), read-out: Anti-angiogenic phenotype

Compound | antiangiogenic activities ([1]; 2.5 μM, not enhanced greatly at 10 μM) | inhibition in vivo at 1 µM ([1]; Danio rerio, zebrafish embryos, read-out: antiangiogenic rates) [%] | inhibition in vivo at 1 µM [1, 2] [%] | inhibition in vivo at 2.5 µM ([1]; Danio rerio, 2.5 μM, zebrafish embryos, vs vehicle (0.05% DMSO), read-out: Anti-angiogenic phenotype) [%] | inhibition in vivo at 10 µM [1, 2] [%] | IC50 (LO2) [µM] | IC50 (HUVEC) [µM] | IC50 (HeLa) [µM] | IC50 (HCT116) [µM] | IC50 (A549) [µM] | IC50 (K562) [µM] | IC50 (HepG2) [µM] | antiangiogenic rates ([1]; zebrafish embryos)
CC(C)=CCCC1(C)C=Cc2c(O)c3c(c(CC=C(C)C)c2O1)OC12C(=CC4CC1C(C)(C)OC2(C/C=C(/C)C(=O)Oc1ccc(NC(=O)CCCl)cc1)C4=O)C3=O (stereo not shown) [Compound 9, 3-Chloro-N-(4-phenylgambogate)propanamide] | moderate | < 25 | < 25 | 25 to 50 | 25 to 50 | 1 ± 0.1 | 4.27 ± 0.25 | 3.42 ± 0.19 | 2.05 ± 0.41 | 3.75 ± 0.35 | 1.14 ± 0.03 | 5.16 ± 0.55 | –
CC(C)=CCCC1(C)C=Cc2c(O)c3c(c(CC=C(C)C)c2O1)OC12C(=CC4CC1C(C)(C)OC2(C/C=C(/C)C(=O)Oc1ccc(C(=O)CBr)cc1)C4=O)C3=O (stereo not shown) [Compound 16, 4-(2-Bromoacetyl)phenyl gambogate] | – | – | – | – | 25 to 50 | 5.25 ± 0.51 | 11.9 ± 1.36 | 8.98 ± 0.58 | 5.08 ± 0.77 | > 80 | 3.46 ± 0.34 | 4.51 ± 0.29 | inactive
COCCc1ccc(OC(=O)/C(C)=C\CC23OC(C)(C)C4CC(C=C5C(=O)c6c(O)c7c(c(CC=C(C)C)c6OC542)OC(C)(CCC=C(C)C)C=C7)C3=O)cc1 (stereo not shown) [Compound 18, 4-(2-Methoxyethyl)phenyl gambogate] | – | – | – | – | – | 15.2 ± 0.72 | 10.4 ± 1.08 | > 80 | 2.45 ± 0.15 | 66.2 ± 1.65 | 7.52 ± 0.83 | 6.45 ± 0.37 | –
CC(C)=CCCC1(C)C=Cc2c(O)c3c(c(CC=C(C)C)c2O1)OC12C(=CC4CC1C(C)(C)OC2(C/C=C(/C)C(=O)Oc1ccc(Br)cc1)C4=O)C3=O (stereo not shown) [Compound 19, 4-Bromophenyl gambogate] | – | – | – | – | – | > 80 | 68 ± 4 | > 80 | 70.2 ± 3.06 | > 80 | > 80 | > 80 | –
CC(C)=CCCC1(C)C=Cc2c(O)c3c(c(CC=C(C)C)c2O1)OC12C(=CC4CC1C(C)(C)OC2(C/C=C(/C)C(=O)Oc1ccc(C=O)cc1)C4=O)C3=O (stereo not shown) [Compound 20, 4-Formylphenyl gambogate] | – | – | – | – | 25 to 50 | 9.92 ± 0.52 | 7.7 ± 0.32 | 24.3 ± 2.13 | 7.9 ± 0.14 | 31.2 ± 2.29 | 4.52 ± 0.43 | 5.86 ± 0.4 | inactive
CCc1ccc(OC(=O)/C(C)=C\CC23OC(C)(C)C4CC(C=C5C(=O)c6c(O)c7c(c(CC=C(C)C)c6OC542)OC(C)(CCC=C(C)C)C=C7)C3=O)cc1 (stereo not shown) [Compound 21, 4-Ethylphenyl gambogate] | – | – | – | – | – | > 80 | 70.5 ± 4.86 | > 80 | > 80 | > 80 | > 80 | > 80 | –
COc1ccc(OC(=O)/C(C)=C\CC23OC(C)(C)C4CC(C=C5C(=O)c6c(O)c7c(c(CC=C(C)C)c6OC542)OC(C)(CCC=C(C)C)C=C7)C3=O)cc1Br (stereo not shown) [Compound 22, 2-Bromo-4-methoxyphenyl gambogate] | – | – | – | – | 25 to 50 | > 80 | 51.3 ± 1.1 | > 80 | 36.9 ± 0.64 | > 80 | 36.9 ± 0.56 | 63.2 ± 3.88 | inactive
CC(C)=CCCC1(C)C=Cc2c(O)c3c(c(CC=C(C)C)c2O1)OC12C(=CC4CC1C(C)(C)OC2(C/C=C(/C)C(=O)Oc1ccc(Br)c(F)c1F)C4=O)C3=O (stereo not shown) [Compound 24, 4-Bromo-2,3-difluorophenyl gambogate] | – | – | – | – | – | > 80 | > 80 | > 80 | > 80 | > 80 | > 80 | > 80 | –
CC(C)=CCCC1(C)C=Cc2c(O)c3c(c(CC=C(C)C)c2O1)OC12C(=CC4CC1C(C)(C)OC2(C/C=C(/C)C(=O)Oc1ccc(C(C)(C)CC(C)(C)C)cc1)C4=O)C3=O (stereo not shown) [Compound 25, 4-(2,4,4-Trimethylpentan-2-yl)phenyl gambogate] | – | – | – | – | – | > 80 | > 80 | > 80 | > 80 | > 80 | > 80 | > 80 | –
CC(=O)Nc1ccccc1OC(=O)/C(C)=C\CC12OC(C)(C)C3CC(C=C4C(=O)c5c(O)c6c(c(CC=C(C)C)c5OC431)OC(C)(CCC=C(C)C)C=C6)C2=O (stereo not shown) [Compound 27, 2-Acetamidophenyl gambogate] | – | – | – | – | – | 1.52 ± 0.12 | 0.5 ± 0.03 | 3.51 ± 0.15 | 1.05 ± 0.07 | 1.22 ± 0.25 | 0.52 ± 0.02 | 0.69 ± 0.08 | –
CC(C)=CCCC1(C)C=Cc2c(O)c3c(c(CC=C(C)C)c2O1)OC12C(=CC4CC1C(C)(C)OC2(C/C=C(/C)C(=O)Sc1nccs1)C4=O)C3=O (stereo not shown) [Compound 29, S-thiazol-2-yl gambogthioate] | – | – | – | – | – | 4.28 ± 0.33 | 6.64 ± 0.11 | 1.45 ± 0.07 | 1.63 ± 0.15 | 0.63 ± 0.01 | 0.79 ± 0.06 | 0.85 ± 0.15 | –
CC(=O)Nc1ccc(SC(=O)/C(C)=C\CC23OC(C)(C)C4CC(C=C5C(=O)c6c(O)c7c(c(CC=C(C)C)c6OC542)OC(C)(CCC=C(C)C)C=C7)C3=O)cc1 (stereo not shown) [Compound 30, 4-Acetamidophenyl gambogthioate] | – | – | – | – | – | 2.84 ± 0.34 | 1.03 ± 0.07 | 3.43 ± 0.28 | 1.33 ± 0.07 | 1.24 ± 0.09 | 0.44 ± 0.02 | 1.72 ± 0.03 | –
CC(C)=CCCC1(C)C=Cc2c(O)c3c(c(CC=C(C)C)c2O1)OC12C(=CC4CC1C(C)(C)OC2(C/C=C(/C)C(=O)n1cccn1)C4=O)C3=O (stereo not shown) [Compound 33, 1-Gambogyl pyrazole] | – | – | – | – | – | 1.75 ± 0.09 | 0.57 ± 0.03 | 4.23 ± 0.39 | 1.2 ± 0.09 | 1.3 ± 0.08 | 0.53 ± 0.05 | 1 ± 0.06 | –
CC(C)=CCCC1(C)C=Cc2c(O)c3c(c(CC=C(C)C)c2O1)OC12C(=CC4CC1C(C)(C)OC2(C/C=C(/C)C(=O)Nc1nc2ccccc2s1)C4=O)C3=O (stereo not shown) [Compound 34, N-(benzo[d]thiazol-2-yl) gambogamide] | – | – | – | – | – | 7.3 ± 1.2 | 5.63 ± 0.2 | > 80 | 7.74 ± 1.43 | 21.4 ± 3.71 | > 20 | 8.65 ± 0.46 | –
